From article PMC11200976, “Pitavastatin Calcium Confers Fungicidal Properties to Fluconazole by Inhibiting Ubiquinone Biosynthesis and Generating Reactive Oxygen Species” (Antioxidants, 2024)
Where a name gives a salt, the structure may show the parent alone. Read-outs that look alike come from different tables or passages of the source.

System: C. albicans
Test: Broth microdilution assay of synergistic lethality with 4 μg/mL FLC (recovery on drug-free YPD)
Type: cell-based, Candida albicans
[1] = concentration of the compound that is synergistically lethal with 4 μg/mL FLC, C. albicans, recovery on drug-free YPD

CN1CCC(=C2c3ccccc3C=Cc3ccccc32)CC1.CN1CCC(=C2c3ccccc3C=Cc3ccccc32)CC1.Cl.Cl.O.O.O
Synergistic lethal concentrations [1]: 100 µM

CC=CC(=O)N(CC)c1ccccc1C (mixture of isomers) [Crotamiton]
Synergistic lethal concentrations [1]: 100 µM

Cl.Cl.OCCN1CCN(CCC=C2c3ccccc3Sc3ccc(C(F)(F)F)cc32)CC1 (mixture of isomers) [Flupentixol dihydrochloride]
Synergistic lethal concentrations [1]: 100 µM

COC(=O)C1=C(C)NC(C)=C(C(=O)O[C@@H]2CCCN(Cc3ccccc3)C2)[C@@H]1c1cccc([N+](=O)[O-])c1.Cl (racemic) [Benidipine (hydrochloride)]
Synergistic lethal concentrations [1]: 100 µM

O=C(c1ccc(F)c(F)c1Nc1ccc(I)cc1F)N1CC(O)([C@@H]2CCCCN2)C1 (racemic) [Cobimetinib (racemate)]
Synergistic lethal concentrations [1]: 25 µM

Nc1c2ccccc2nc2ccccc12 [9-Aminoacridine]
Synergistic lethal concentrations [1]: 100 µM

CN(C)C/C=C/C(=O)Nc1cc2c(Nc3ccc(F)c(Cl)c3)ncnc2cc1O[C@H]1CCOC1.O=C(O)/C=C\C(=O)O.O=C(O)/C=C\C(=O)O [Afatinib (dimaleate)]
Synergistic lethal concentrations [1]: 100 µM

CN(C)C/C=C/C(=O)Nc1cc2c(Nc3ccc(F)c(Cl)c3)ncnc2cc1O[C@H]1CCOC1 [Afatinib]
Synergistic lethal concentrations [1]: 100 µM

C=CC(=O)Nc1cc(Nc2nccc(-c3cn(C4CC4)c4ccccc34)n2)c(OC)cc1N(C)CCN(C)C.Cl [Almonertinib (hydrochloride)]
Synergistic lethal concentrations [1]: 12.5 µM

C=CC(=O)Nc1cc(Nc2nccc(-c3cn(C4CC4)c4ccccc34)n2)c(OC)cc1N(C)CCN(C)C [Almonertinib]
Synergistic lethal concentrations [1]: 25 µM

CN(C)CCC=C1c2ccccc2CCc2ccccc21.Cl [Amitriptyline (hydrochloride)]
Synergistic lethal concentrations [1]: 100 µM

CCOC(=O)C1=C(COCCN)NC(C)=C(C(=O)OC)C1c1ccccc1Cl.O=C(O)/C=C\C(=O)O (stereo not shown) [Amlodipine (maleate)]
Synergistic lethal concentrations [1]: 100 µM

CCOC(=O)C1=C(COCCN)NC(C)=C(C(=O)OC)C1c1ccccc1Cl (stereo not shown) [Amlodipine]
Synergistic lethal concentrations [1]: 100 µM

CCC(C)(C)c1ccc(CC(C)CN2C[C@@H](C)O[C@@H](C)C2)cc1.Cl (stereo partly shown) [Amorolfine (hydrochloride)]
Synergistic lethal concentrations [1]: 100 µM

Clc1ccc2c(c1)C(N1CCNCC1)=Nc1ccccc1O2 [Amoxapine]
Synergistic lethal concentrations [1]: 100 µM

CN(C)N(C)C(=O)[C@@]1(Cc2ccccc2)CCCN(C(=O)[C@@H](Cc2c[nH]c3ccccc23)NC(=O)C(C)(C)N)C1.Cl [Anamorelin (hydrochloride)]
Synergistic lethal concentrations [1]: 100 µM

CNCC[C@@H](Oc1ccccc1C)c1ccccc1.Cl [Atomoxetine (hydrochloride)]
Synergistic lethal concentrations [1]: 100 µM

CN1[C@@H]2CC[C@H]1C[C@@H](OC(c1ccccc1)c1ccccc1)C2.CS(=O)(=O)O [Benztropine (mesylate)]
Synergistic lethal concentrations [1]: 100 µM

CCN1CCN(c2cc(-c3ccc(F)cc3)c3c(n2)CCCCCC3)CC1 [Blonanserin]
Synergistic lethal concentrations [1]: 50 µM

COc1cc(Nc2c(C#N)cnc3cc(OCCCN4CCN(C)CC4)c(OC)cc23)c(Cl)cc1Cl [Bosutinib]
Synergistic lethal concentrations [1]: 25 µM

CCCCOc1ccc(CC(=O)NO)cc1 [Bufexamac]
Synergistic lethal concentrations [1]: 100 µM

Cc1ccc([C@@H]2O[C@H](CO)[C@@H](O)[C@H](O)[C@H]2O)cc1Cc1ccc(-c2ccc(F)cc2)s1.O [Canagliflozin (hemihydrate)]
Synergistic lethal concentrations [1]: 100 µM

Cc1ccc([C@@H]2O[C@H](CO)[C@@H](O)[C@H](O)[C@H]2O)cc1Cc1ccc(-c2ccc(F)cc2)s1 [Canagliflozin]
Synergistic lethal concentrations [1]: 100 µM

C[N+](C)(CC(=O)Nc1ccccc1)CC(=O)Nc1ccccc1.[Cl-] [Carcainium (chloride)]
Synergistic lethal concentrations [1]: 100 µM

COc1ccccc1OCCNCC(O)COc1cccc2[nH]c3ccccc3c12 (stereo not shown) [Carvedilol]
Synergistic lethal concentrations [1]: 100 µM

Cc1cc(Nc2ncc(Cl)c(Nc3ccccc3S(=O)(=O)C(C)C)n2)c(OC(C)C)cc1C1CCNCC1.Cl.Cl [Ceritinib dihydrochloride]
Synergistic lethal concentrations [1]: 12.5 µM

Cc1cc(Nc2ncc(Cl)c(Nc3ccccc3S(=O)(=O)C(C)C)n2)c(OC(C)C)cc1C1CCNCC1 [Ceritinib]
Synergistic lethal concentrations [1]: 12.5 µM

N=C(NCCCCCCNC(=N)NC(=N)Nc1ccc(Cl)cc1)NC(=N)Nc1ccc(Cl)cc1.O=C(O)[C@H](O)[C@@H](O)[C@H](O)[C@H](O)CO.O=C(O)[C@H](O)[C@@H](O)[C@H](O)[C@H](O)CO [Chlorhexidine (digluconate)]
Synergistic lethal concentrations [1]: 6.25 µM

CN(C)CC/C=C1/c2ccccc2Sc2ccc(Cl)cc21 [Chlorprothixene]
Synergistic lethal concentrations [1]: 100 µM

C[C@@H](NCCCc1cccc(C(F)(F)F)c1)c1cccc2ccccc12.Cl [Cinacalcet (hydrochloride)]
Synergistic lethal concentrations [1]: 100 µM

C[C@@H](NCCCc1cccc(C(F)(F)F)c1)c1cccc2ccccc12 [Cinacalcet]
Synergistic lethal concentrations [1]: 100 µM

Oc1c(I)cc(Cl)c2cccnc12 [Clioquinol]
Synergistic lethal concentrations [1]: 12.5 µM

CN1CCN(C2=Nc3cc(Cl)ccc3Nc3ccccc32)CC1 [Clozapine]
Synergistic lethal concentrations [1]: 100 µM

CC(C)c1nc(CN(C)C(=O)N[C@@H](CCN2CCOCC2)C(=O)N[C@H](CC[C@H](Cc2ccccc2)NC(=O)OCc2cncs2)Cc2ccccc2)cs1 [Cobicistat]
Synergistic lethal concentrations [1]: 100 µM

O=C(O)/C=C/C(=O)O.O=C(c1ccc(F)c(F)c1Nc1ccc(I)cc1F)N1CC(O)([C@@H]2CCCCN2)C1.O=C(c1ccc(F)c(F)c1Nc1ccc(I)cc1F)N1CC(O)([C@@H]2CCCCN2)C1 [Cobimetinib (hemifumarate)]
Synergistic lethal concentrations [1]: 50 µM

O=C(c1ccc(F)c(F)c1Nc1ccc(I)cc1F)N1CC(O)([C@@H]2CCCCN2)C1 [Cobimetinib]
Synergistic lethal concentrations [1]: 50 µM

Cc1nc2c([nH]1)-c1ccccc1N(C(=O)c1ccc(NC(=O)c3ccccc3-c3ccccc3)cc1)CC2.Cl [Conivaptan (hydrochloride)]
Synergistic lethal concentrations [1]: 100 µM

CC1CC(OC(=O)C(O)c2ccccc2)CC(C)(C)C1 (stereo not shown) [Cyclandelate]
Synergistic lethal concentrations [1]: 100 µM

CN(C)CCC=C1c2ccccc2C=Cc2ccccc21.Cl [Cyclobenzaprine (hydrochloride)]
Synergistic lethal concentrations [1]: 100 µM

CN1CCC(=C2c3ccccc3C=Cc3ccccc32)CC1.Cl [Cyproheptadine (hydrochloride)]
Synergistic lethal concentrations [1]: 50 µM

CCCCCCOC(=O)NC(=N)c1ccc(NCc2nc3cc(C(=O)N(CCC(=O)OCC)c4ccccn4)ccc3n2C)cc1.CS(=O)(=O)O [Dabigatran etexilate (mesylate)]
Synergistic lethal concentrations [1]: 50 µM

CCCCCCOC(=O)N=C(N)c1ccc(NCc2nc3cc(C(=O)N(CCC(=O)OCC)c4ccccn4)ccc3n2C)cc1 [Dabigatran etexilate]
Synergistic lethal concentrations [1]: 6.25 µM

COc1cc2ncnc(Nc3ccc(F)c(Cl)c3)c2cc1NC(=O)/C=C/CN1CCCCC1 [Dacomitinib]
Synergistic lethal concentrations [1]: 100 µM

CN(C)[C@@H](CCOc1cccc2ccccc12)c1ccccc1.Cl [Dapoxetine (hydrochloride)]
Synergistic lethal concentrations [1]: 50 µM

Br.NC(=O)C(c1ccccc1)(c1ccccc1)[C@@H]1CCN(CCc2ccc3c(c2)CCO3)C1 [Darifenacin (hydrobromide)]
Synergistic lethal concentrations: 100 µM

CNCCCN1c2ccccc2CCc2ccccc21 [Desipramine hydrochloride]
Synergistic lethal concentrations [1]: 100 µM

O=C(O)c1cc(-c2ccc(F)cc2F)ccc1O [Diflunisal]
Synergistic lethal concentrations [1]: 100 µM

CC(C)[C@@]1(NC(=O)[C@@H]2C[C@@H]3c4cccc5[nH]cc(c45)C[C@H]3N(C)C2)O[C@@]2(O)[C@@H]3CCCN3C(=O)[C@H](Cc3ccccc3)N2C1=O.CS(=O)(=O)O [Dihydroergocristine (mesylate)]
Synergistic lethal concentrations [1]: 100 µM

Cc1ccc2c(c1)[C@]13CCCC[C@@H]1[C@H](C2)N(C)CC3.O=P(O)(O)O [Dimemorfan (phosphate)]
Synergistic lethal concentrations [1]: 100 µM

OCCN(CCO)c1nc(N2CCCCC2)c2nc(N(CCO)CCO)nc(N3CCCCC3)c2n1 [Dipyridamole]
Synergistic lethal concentrations [1]: 100 µM

CCN(CC)C(=S)SSC(=S)N(CC)CC [Disulfiram]
Synergistic lethal concentrations [1]: 100 µM

CCCCC(CC)COC(=O)CC(C(=O)OCC(CC)CCCC)S(=O)(=O)[O-].[Na+] (stereo not shown) [Docusate (Sodium)]
Synergistic lethal concentrations [1]: 100 µM

CCCCCCCCCCCC[N+](C)(C)CCOc1ccccc1.[Br-] [Domiphen (bromide)]
Synergistic lethal concentrations [1]: 0.1953 µM

O=c1[nH]c2ccccc2n1CCCN1CCC(n2c(=O)[nH]c3cc(Cl)ccc32)CC1 [Domperidone]
Synergistic lethal concentrations [1]: 100 µM

CCCCc1oc2ccc(NS(C)(=O)=O)cc2c1C(=O)c1ccc(OCCCN(CCCC)CCCC)cc1.Cl [Dronedarone (Hydrochloride)]
Synergistic lethal concentrations [1]: 100 µM

CCCCc1oc2ccc(NS(C)(=O)=O)cc2c1C(=O)c1ccc(OCCCN(CCCC)CCCC)cc1 [Dronedarone]
Synergistic lethal concentrations [1]: 100 µM

O=C(CCCN1CC=C(n2c(=O)[nH]c3ccccc32)CC1)c1ccc(F)cc1 [Droperidol]
Synergistic lethal concentrations [1]: 100 µM

CNCC[C@H](Oc1cccc2ccccc12)c1cccs1.Cl [Duloxetine (hydrochloride)]
Synergistic lethal concentrations: 50 µM

CN1CCN(c2ccc(C(=O)Nc3n[nH]c4ccc(Cc5cc(F)cc(F)c5)cc34)c(NC3CCOCC3)c2)CC1 [Entrectinib]
Synergistic lethal concentrations [1]: 50 µM

CC(O)C(=O)O.CCOc1ccc2nc3cc(N)ccc3c(N)c2c1.O [Ethacridine (lactate monohydrate)]
Synergistic lethal concentrations [1]: 100 µM

CCOC(=O)c1cncn1[C@H](C)c1ccccc1.Cl [Etomidate (hydrochloride)]
Synergistic lethal concentrations [1]: 100 µM

C=CCc1ccc(O)c(OC)c1 [Eugenol]
Synergistic lethal concentrations [1]: 100 µM

Cc1cnc(Nc2ccc(OCCN3CCCC3)cc2)nc1Nc1cccc(S(=O)(=O)NC(C)(C)C)c1 [Fedratinib]
Synergistic lethal concentrations [1]: 100 µM

CCOC(=O)C1=C(C)NC(C)=C(C(=O)OC)C1c1cccc(Cl)c1Cl (stereo not shown) [Felodipine]
Synergistic lethal concentrations [1]: 100 µM
